Patent US10849918B2, “Composition for optic nerve protection” (TOHOKU TECHNO ARCH CO., LTD., priority 2015, dated 2020)

Tested on: retinal ganglion cells
Experiment: Test 2: optic nerve protection in optic nerve crush injury murine model, oral administration
Type: in vivo, mice
Details: summary statement; oral or intraocular administration, optic nerve crush injury model and NMDA model
Description: The nerve protection effect of each ingredient was verified by using a rodent glaucoma pathological model of an optic nerve crush injury murine model.
Test animal: male C57BL/6 strain mice, 9-12 weeks old, each approximately 25 g
The experiment was conducted according to the following method. The number of samples in each group was 8.
(2) To the mice in the experimental groups, each ingredient prepared as shown in Table 2 was orally administered at a dosage as shown in Table 2 once a day from one week before the optic nerve crush treatment; to the mice in the control groups, 100 μL of distilled water or phosphate-buffered saline (containing no Ca or Mg, pH: 7.4, hereinafter abbreviated as “PBS(−)”) was administered likewise.
(3) The optic nerve crush treatment on the mice was performed under anesthesia by administering ketamine (100 mg/kg) and xylazine (5 mg/kg). The optic nerve crush treatment was performed on only single eyes, and the fellow eyes were untreated. After the optic nerve crush treatment was completed, an antibacterial ophthalmic ointment was instilled to the eyes of the mice. […]
(7) The number of cells labeled with Fluoro-Gold was counted to obtain an average number at the 12 sites. […]

COc1ccc([C@@H]2CC(=O)c3c(O)cc(O[C@@H]4O[C@H](CO[C@@H]5O[C@@H](C)[C@H](O)[C@@H](O)[C@H]5O)[C@@H](O)[C@H](O)[C@H]4O)cc3O2)cc1O [hesperidin]
protection effect on the death of retinal ganglion cells: excellent protection effect on the death of retinal ganglion cells
